Source: a melting point compilation (Tetko et al.; mined from patent text by program, amines drawn as free bases though some values may be those of a salt)

SMILES	melting point [°C]
Nc1cc(S(=O)(=O)CCO)ccc1Nc1ccc(N)c(S(=O)(=O)O)c1	254
O=C(O)Cc1ccc(NC(=O)C(COc2ccc(Cl)cc2)NS(=O)(=O)c2ccc(Br)cc2)cc1 (racemic)	218 to 220
CC(=O)Nc1ccc(S(=O)(=O)Nc2ccccc2)cc1	209 to 210
O=C(O)Cc1ccc(CO[N+](=O)[O-])cc1	109 to 110
CC(C)(C)NCC(O)COc1ccc2c(=O)cc(-c3ccc(OCc4ccccc4)c(OCc4ccccc4)c3)oc2c1 (stereo not drawn)	159 to 161
Nc1nc(NC2CC2c2ccccc2)c2ncn(C3C=CC(CO)C3)c2n1 (stereo not drawn)	188 to 190
Cc1ccc(C(O)C(=O)c2ccc(Br)cc2)cc1 (stereo not drawn)	80 to 82
CS(=O)(=O)N(c1ccc(CN2N=C(c3ccc(Cl)cc3)c3ccccc3-n3cnnc32)cc1)S(C)(=O)=O	220 to 221
[N-]=[N+]=NCC1OC(n2cc(C=CBr)c(=O)[nH]c2=O)CC1Cl (stereo not drawn)	58 to 60
CCCC[C@H](NC(=O)[C@H](CCC(=O)OC(C)(C)C)NC(=O)OCc1ccccc1)C(=O)CSCc1ccco1	78 to 79
C=C1c2ccccc2C(=O)N1c1ccncc1	173 to 174
COC(=O)c1nn(C)nc1C(=O)OC	86 to 87
O=c1nc(-c2cccc(S(=O)CCc3ccccc3)n2)sc2ccccc12 (stereo not drawn)	164 to 166
Cc1ccccc1-n1c(-c2sc(Nc3ccc(Cl)cc3)nc2C)nc2ccccc2c1=O	> 275
O=C(NCCO)c1ccc(/C=C/c2ccccc2OCc2ccccc2)cc1	149 to 151
Nc1cc(CCC(=O)N(c2ccccc2)c2ccccc2)ccc1O	170 to 172
O=C(c1ccc(Cl)cc1)c1ccc2[nH]c(=O)cc(-c3cccc(Cl)c3)c2c1	235
Cc1nc2ccccc2nc1S(=O)Cc1ccccc1N(C)C (stereo not drawn)	68 to 70

SMILES	melting point [°C]
COc1cc(-c2cc3c(Cl)ccnc3[nH]2)cc(OC)c1OC	188 to 190
c1ccc(SCc2cc3ccccc3[nH]2)cc1	100 to 102
CCOc1ccccc1OCC1(O)CCNC1 (stereo not drawn)	108 to 110
O=C(NC(c1ccccc1)c1ccccc1)N1CCC(C(=O)O)(c2ccccc2)CC1	208
OC(c1ccc2c(c1)CCN2)(C(F)F)C(F)F	130 to 134
C#CC(OC(=O)C1CC1)c1ccc2ccccc2c1 (stereo not drawn)	65 to 66
O=C(OCCOc1ccccc1)c1cccc(NC(=O)C(CS)Cc2ccccc2)c1 (stereo not drawn)	98 to 100
N#Cc1cc(O)cc(OCCc2ccccn2)c1N	149 to 150
CN(C)Cc1ccc(CSCCNC(=C[N+](=O)[O-])NCCSCc2ccc(CN(C)C)o2)o1	58 to 62
O=[N+]([O-])c1cccc(-c2coc3ccccc23)c1	86 to 86.5
CN(C)C1(c2ccccc2)CCC(C(O)CN2Cc3ccccc3C2)CC1 (stereo not drawn)	130 to 135
O=C1C2=C(NC(=O)C3(N2)OCCO3)c2ccccc21	296 to 301
CC(=O)c1ccc(NS(C)(=O)=O)c(Br)c1	124 to 126
N#CC(CBr)c1ccccc1 (stereo not drawn)	63
O=C(NOCC(O)CN1CCCCC1)NC1CCCCC1 (stereo not drawn)	108 to 110
Oc1cccc2c1OCO2	62 to 63
NC(=O)c1ccccc1CNC(=S)NC(=O)c1ccccc1	147 to 150

Continued, values first:

melting point [°C]	SMILES
203 to 205	CNC(=O)c1cc(Oc2ccc(NC(=O)Nc3ccc(Br)c(C(F)(F)F)c3)cc2)ccn1
174 to 176	CC(C)(C)C(=O)N1CCN(c2ccc(C(=O)CSc3ccnc4ccccc34)cc2)CC1
180 to 181	COc1ccc(S(=O)(=O)N2CCc3cccc(-c4ccc(C(F)(F)F)cc4)c32)cc1
97 to 100	CCCCCCSCC(O)COc1cccc2oc(C(=O)O)cc(=O)c12 (stereo not drawn)
174 to 176	CN(C)CCCn1c2c(c3ccccc31)CC(O)CC2 (stereo not drawn)
212	CCOC(=O)C1CCN(c2ccc(/C=C/C(=O)O)cc2)CC1
185 to 187	Nc1cccc(-c2ccc(CCN3CCN(C(=O)C4CCCC4)CC3)cc2)n1
240 to 244	O=c1[nH]c2ccc(C(O)CCN3CCC(Cc4ccccc4)CC3)cc2[nH]1 (stereo not drawn)
296 to 298	CC(C)(C)Nc1c(NCc2ccc(F)cc2)c(=O)c1=O
172 to 175	NC1CCCN(c2ncc3ncnc(Nc4ccc(F)c(Cl)c4)c3n2)C1 (stereo not drawn)
210 to 212	CCOc1cc(N)c(Cl)cc1C(=O)NC1CCN(CC2CCN(C(=S)N(C)C)CC2)CC1
215 to 218	O=C(O)c1c[nH]c2c(-c3ccncc3)c(-c3ccc(F)cc3)nn2c1=O
243 to 248	CC1Oc2ccc(CN3CCN(c4ccc(C(=O)O)cn4)CC3)cc2NC1=O (stereo not drawn)
189	O=C(O)Cc1ccc2onc(-c3ccc(Cl)cc3)c2c1
104 to 106	COc1cc(S(C)=O)c(C)cc1OCC(C)=O (stereo not drawn)
106 to 116	NC1=NC(c2cccc(-c3cccnc3F)c2)(c2cnn(CC(F)(F)F)c2)C2=NCCCN12 (stereo not drawn)
260 to 270	CCOC(=O)c1cn(C2CC2)c2c(F)c(N3CC(O)C3)c(F)cc2c1=O
173	COC(=O)C(c1ccc(Cl)cc1)c1c(Cl)cc(-n2ncc(=O)n(C)c2=O)cc1Cl (stereo not drawn)
230 to 232	CC(C)(C)N1CCc2c(C(=O)O)nc3c(C#N)cnn3c21

melting point [°C]	SMILES
186 to 189	C#Cc1cc(Cl)cc2c1OC(C(F)(F)F)C(C(=O)O)=C2 (stereo not drawn)
223 to 224	CN(C)CCn1c(=O)c2cccc(N)c2c2cnc3cc4c(cc3c21)OCO4
352	Nc1cc(C(=O)O)c(N)c2c1C(=O)c1ccccc1C2=O
134 to 136	CC(=O)N1CCN(c2ccc(Nc3nccc(-c4sc(-c5cccs5)nc4C)n3)cc2)CC1
207 to 208	CCOC(=O)C(=O)c1c[nH]c2cc(OC)ccc12
168	CCOC(=O)c1ncn2c1CN(Cc1ccc(OC)cc1OC)C(=O)c1sccc1-2
112	COc1ccc(S(N)(=O)=O)cc1C(O)CCl (stereo not drawn)
165 to 167	Cc1ncc(CNC(=O)c2sc(N3CCN(CC4CC4)C3=O)nc2C)s1
168 to 178	Cc1ccc(C=C2CSCC3=C2N(CC(F)(F)F)NC3c2ccc(C)cc2)cc1 (stereo not drawn)
360 to 362	CCOC(=O)c1cn(C)c2nc3cc(Cl)c(F)cc3cc2c1=O
100 to 101	CCOC(=O)c1cnn(-c2ccc(OC)cc2)c1Cl
102 to 103	Cc1oc(C2CCCCC2)nc1CC(=O)O
158 to 159	CSc1ccc(C(=O)Nc2cccnc2C(=O)Nc2ccc(Cl)cn2)c(OCCN)c1
145 to 146	O=C1c2c(F)c(F)c(F)c(F)c2C(=O)N1c1ccc(F)cc1F
52	CC(=O)CC(=O)NC1CCCCCC1
146 to 147	Cc1oc(-c2ccc(C(F)(F)F)cc2)nc1COc1ccc(CN(O)C(N)=O)cc1
95 to 96	Cc1cccc(C2COc3c(ccc(O)c3O)C2)c1 (stereo not drawn)
98 to 100	CC(=O)OCC1OC(n2c(Cl)nc3cc(Cl)ccc32)C(OC(C)=O)C1OC(C)=O (stereo not drawn)
72 to 74	O=C1c2ccc(F)cc2CC1c1ccc(F)cc1 (stereo not drawn)
